Source: patent US7781565B2 (priority 2006, dated 2010)
Entries after “also recorded” stand apart in the source; their conditions may differ.

Tested on: NCI-60 cell lines
Assay type: cell-based, human

ASPPLRS
Cell Line (NCI-60 cell line the peptide and its motif are associated with): A498 Renal

SVLGSSL
Cell Line with which the peptide (and its tripeptide motif) is associated: H460-Lung

GRVDPVD
Cell Line the peptide is associated with (peptide recovered from phage library selection on this NCI-60 cell line): T-47D Breast

GRAGGNG
Cell Line (NCI-60 cell line the peptide and its motif are associated with): M14 Melanoma

GRLAAGS
Cell Line the peptide is associated with (peptide recovered from phage library selection on this NCI-60 cell line): MCF-7 Breast

TWHAGGI
Cell Line the peptide is associated with (peptide recovered from phage library selection on this NCI-60 cell line): ACHN Renal

GGAGRGA
Cell Line (NCI-60 cell line the peptide and its motif are associated with): OVCAR-4 Ovarian

SRVSFHE
Cell Line (NCI-60 cell line the peptide is associated with): MALME-3M Melanoma

GSVSHRR
Cell Line (NCI-60 cell line the peptide and its motif are associated with): SK-OV-3-3 Ovarian

TWSTGGR
Cell Line (NCI-60 cell line the peptide is associated with): LOX-IMVI Melanoma

LGSSGLR
Cell Line the peptide is associated with (peptide recovered from phage library selection on this NCI-60 cell line): RXF393 Renal

FVARLRV
Cell Line the peptide is associated with (peptide recovered from phage library selection on this NCI-60 cell line): TK-10 Renal

GSGHSFA
Cell Line (NCI-60 cell line the peptide is associated with): KM-12C Colon

PTVSAGL
Cell Line the peptide is associated with (peptide recovered from phage library selection on this NCI-60 cell line): NCI/ADR-RES Breast

AEPRGRV
Cell Line with which the peptide (and its tripeptide motif) is associated: H460-Lung

GGSALFG
Cell Line (NCI-60 cell line the peptide is associated with): HT-29 Colon

NRSSAKF
Cell Line with which the peptide (and its tripeptide motif) is associated: K-562-Leukemia

RRLSYRE
Cell Line (NCI-60 cell line the peptide and its motif are associated with): OVCAR-8 Ovarian

TFGKGGL
Cell Line with which the peptide (and its tripeptide motif) is associated: HL-60-Leukemia

MYLRLLR
Cell Line (NCI-60 cell line the peptide is associated with): HCT-116 Colon

LRVRYAV
Cell Line with which the peptide (and its tripeptide motif) is associated: H322-Lung

GGSRAAE
Cell Line with which the peptide (and its tripeptide motif) is associated: H322-Lung

YADGAAV
Cell Line (NCI-60 cell line the peptide is associated with): SF-295 CNS

SRGSTAG
Cell Line with which the peptide (and its tripeptide motif) is associated: H322-Lung

QRAAVIV
Cell Line (NCI-60 cell line the peptide is associated with): SNB-19 CNS; also recorded: SF-539 CNS

YVGLVVS
Cell Line with which the peptide (and its tripeptide motif) is associated: SR Leukemia

VRLRAVF
Cell Line the peptide is associated with (peptide recovered from phage library selection on this NCI-60 cell line): TK-10 Renal

LWLRSRE
Cell Line (NCI-60 cell line the peptide and its motif are associated with): UACC 257 Melanoma

PGLRGPA
Cell Line (NCI-60 cell line the peptide and its motif are associated with): OVCAR-4 Ovarian

VTGGRVD
Cell Line with which the peptide (and its tripeptide motif) is associated: A549-Lung

AVDGLRL
Cell Line with which the peptide (and its tripeptide motif) is associated: SR Leukemia

VARAVPC
Cell Line with which the peptide (and its tripeptide motif) is associated: Hop-92-Lung

LGTAVSS
Cell Line (NCI-60 cell line the peptide is associated with): SF-268 CNS

HRGGSQS
Cell Line with which the peptide (and its tripeptide motif) is associated: Molt-4-Leukemia

GRVTLES
Cell Line (NCI-60 cell line the peptide and its motif are associated with): OVCAR-3 Ovarian

PRAGGRW
Cell Line with which the peptide (and its tripeptide motif) is associated: EKVX-Lung

RQLVSPA
Cell Line (NCI-60 cell line the peptide is associated with): HT-29 Colon

GRLWSRV
Cell Line with which the peptide (and its tripeptide motif) is associated: Hop-92-Lung

GSGYFIT
Cell Line (NCI-60 cell line the peptide and its motif are associated with): 786-0 Renal

FWRGSVP
Cell Line with which the peptide (and its tripeptide motif) is associated: A549-Lung

AASPHPG
Cell Line the peptide is associated with (peptide recovered from phage library selection on this NCI-60 cell line): T-47D Breast

PNSAGSV
Cell Line the peptide is associated with (peptide recovered from phage library selection on this NCI-60 cell line): SN12C Renal

GGSPGVW
Cell Line (NCI-60 cell line the peptide and its motif are associated with): SK-MEL-5 Melanoma

HAAVMSL
Cell Line (NCI-60 cell line the peptide is associated with): HCT-15 Colon

GLMRLSH
Cell Line (NCI-60 cell line the peptide and its motif are associated with): UACC62 Melanoma

GRLRLRV
Cell Line (NCI-60 cell line the peptide is associated with): SF-295 CNS

TRGVIGG
Cell Line the peptide is associated with (peptide recovered from phage library selection on this NCI-60 cell line): T-47D Breast

EGSVDAH
Cell Line (NCI-60 cell line the peptide is associated with): SW620-Colon

DGVSPLW
Cell Line the peptide is associated with (peptide recovered from phage library selection on this NCI-60 cell line): TK-10 Renal

GYARGSG
Cell Line the peptide is associated with (peptide recovered from phage library selection on this NCI-60 cell line): RXF393 Renal

GGSGELG
Cell Line with which the peptide (and its tripeptide motif) is associated: H23-Lung

GVLARVT
Cell Line with which the peptide (and its tripeptide motif) is associated: CCRF-CEM Leukemia

GGRLRAV
Cell Line (NCI-60 cell line the peptide is associated with): SNB-19 CNS; also recorded: SF-539 CNS

LVRVSGR
Cell Line with which the peptide (and its tripeptide motif) is associated: HL-60-Leukemia

YNRSAGL
Cell Line with which the peptide (and its tripeptide motif) is associated: CCRF-CEM Leukemia

GSSWVVD
Cell Line with which the peptide (and its tripeptide motif) is associated: A549-Lung

FLHMRLS
Cell Line (NCI-60 cell line the peptide and its motif are associated with): M14 Melanoma

YSQRSSL
Cell Line with which the peptide (and its tripeptide motif) is associated: Hop-62-Lung

LGGAAVR
Cell Line the peptide is associated with (peptide recovered from phage library selection on this NCI-60 cell line): T-47D Breast

GGRRVVV
Cell Line the peptide is associated with (peptide recovered from phage library selection on this NCI-60 cell line): NCI/ADR-RES Breast

RAGRGFE
Cell Line (NCI-60 cell line the peptide and its motif are associated with): UACC62 Melanoma

SRLSYRS
Cell Line with which the peptide (and its tripeptide motif) is associated: A549-Lung

RTWGGRM
Cell Line (NCI-60 cell line the peptide and its motif are associated with): M14 Melanoma

ISPRSSG
Cell Line (NCI-60 cell line the peptide is associated with): HCT-15 Colon

RWAGLVA
Cell Line (NCI-60 cell line the peptide is associated with): SF-295 CNS

VHKRAVL
Cell Line the peptide is associated with (peptide recovered from phage library selection on this NCI-60 cell line): UO31 Renal

GAGSFSS
Cell Line (NCI-60 cell line the peptide and its motif are associated with): SK-MEL-2 Melanoma

SNARGPR
Cell Line with which the peptide (and its tripeptide motif) is associated: K-562-Leukemia

VPLRSSA
Cell Line (NCI-60 cell line the peptide is associated with): HT-29 Colon

LIGGVLH
Cell Line (NCI-60 cell line the peptide and its motif are associated with): IGROV1 Ovarian

ALVSTIL
Cell Line the peptide is associated with (peptide recovered from phage library selection on this NCI-60 cell line): UO31 Renal

AVYVGRL
Cell Line the peptide is associated with (peptide recovered from phage library selection on this NCI-60 cell line): NCI/ADR-RES Breast

GHYRASV
Cell Line (NCI-60 cell line the peptide is associated with): HT-29 Colon

LFGSSVS
Cell Line the peptide is associated with (peptide recovered from phage library selection on this NCI-60 cell line): SN12C Renal

GDRRLVS
Cell Line the peptide is associated with (peptide recovered from phage library selection on this NCI-60 cell line): NCI/ADR-RES Breast

AEYGRVL
Cell Line (NCI-60 cell line the peptide and its motif are associated with): M14 Melanoma

DTLASLR
Cell Line (NCI-60 cell line the peptide is associated with): HT-29 Colon

VAELLSM
Cell Line (NCI-60 cell line the peptide and its motif are associated with): OVCAR-5 Ovarian

RAAVIHT
Cell Line (NCI-60 cell line the peptide is associated with): MALME-3M Melanoma

RSLGSVG
Cell Line (NCI-60 cell line the peptide and its motif are associated with): DU-145 Prostate

LLSPRGT
Cell Line (NCI-60 cell line the peptide is associated with): SF-295 CNS

CQGLVLQ
Cell Line with which the peptide (and its tripeptide motif) is associated: K-562-Leukemia

DGAVILH
Cell Line (NCI-60 cell line the peptide and its motif are associated with): UACC 257 Melanoma

ARVGVSP
Cell Line with which the peptide (and its tripeptide motif) is associated: H322-Lung

GAVLTSC
Cell Line the peptide is associated with (peptide recovered from phage library selection on this NCI-60 cell line): BT-549 Breast

VGLRVRF
Cell Line the peptide is associated with (peptide recovered from phage library selection on this NCI-60 cell line): BT-549 Breast

LRSGSLG
Cell Line (NCI-60 cell line the peptide is associated with): SF-268 CNS

MLGSASL
Cell Line the peptide is associated with (peptide recovered from phage library selection on this NCI-60 cell line): A498 Renal

VRSSGVL
Cell Line (NCI-60 cell line the peptide and its motif are associated with): SK-OV-3-3 Ovarian

MVYSGVS
Cell Line (NCI-60 cell line the peptide and its motif are associated with): M14 Melanoma

AAGRIRP
Cell Line (NCI-60 cell line the peptide is associated with): HCT-15 Colon

IGGRWVV
Cell Line (NCI-60 cell line the peptide and its motif are associated with): SK-OV-3-3 Ovarian

GLLSSFS
Cell Line (NCI-60 cell line the peptide and its motif are associated with): M14 Melanoma

DRFGSSA
Cell Line the peptide is associated with (peptide recovered from phage library selection on this NCI-60 cell line): ACHN Renal

GALRVPW
Cell Line (NCI-60 cell line the peptide is associated with): HCT-15 Colon

GGLSPHR
Cell Line with which the peptide (and its tripeptide motif) is associated: H460-Lung

YLGLGGL
Cell Line (NCI-60 cell line the peptide and its motif are associated with): DU-145 Prostate

FGVSQVH
Cell Line the peptide is associated with (peptide recovered from phage library selection on this NCI-60 cell line): CAIK-1 Renal

INWAGLS
Cell Line with which the peptide (and its tripeptide motif) is associated: Hop-92-Lung

LRGVYVA
Cell Line the peptide is associated with (peptide recovered from phage library selection on this NCI-60 cell line): NCI/ADR-RES Breast

GSVLGAL
Cell Line (NCI-60 cell line the peptide is associated with): HT-29 Colon

AAGGLLV
Cell Line (NCI-60 cell line the peptide is associated with): HCC-2998-Colon

LKVRGVL
Cell Line (NCI-60 cell line the peptide is associated with): HT-29 Colon

ARGVLLM
Cell Line with which the peptide (and its tripeptide motif) is associated: CCRF-CEM Leukemia

KAASTED
Cell Line the peptide is associated with (peptide recovered from phage library selection on this NCI-60 cell line): SN12C Renal

RGSPLTK
Cell Line (NCI-60 cell line the peptide and its motif are associated with): UACC 257 Melanoma

YVGGRLR
Cell Line (NCI-60 cell line the peptide and its motif are associated with): OVCAR-5 Ovarian

VMGGPSL
Cell Line with which the peptide (and its tripeptide motif) is associated: Hop-62-Lung

SRASGHG
Cell Line (NCI-60 cell line the peptide is associated with): HT-29 Colon

KYYGLRR
Cell Line with which the peptide (and its tripeptide motif) is associated: RPMI-8226-Leukemia

GGSFSGL
Cell Line with which the peptide (and its tripeptide motif) is associated: A549-Lung

GGGRSGV
Cell Line with which the peptide (and its tripeptide motif) is associated: H226-Lung

WRASAFT
Cell Line with which the peptide (and its tripeptide motif) is associated: SR Leukemia

NSFGLRY
Cell Line (NCI-60 cell line the peptide is associated with): COLO-205-Colon
